Results: the supplement of paper PMC4862054

Legend:
Assay in all cases: normalised response (% of control), CellTox Green; higher = less cell death (100 = DMSO, 0 = benzethonium chloride kill control)
Conditions in all cases: incubation time: 72 h
CAL-148 = tested on: CAL-148
Outline: (§1)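 Breast cancer cell lines were exposed for 72 h in 384-well plates to compound at 5 concentrations, 10-fold apart, covering a 10,000-fold range fixed for each compound. Plates were read for CellTox Green fluorescence and CellTiter-Glo luminescence and normalised to 0.1 % DMSO (100) and a positive kill control (0). Each value is the normalised signal at one concentration of the series.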

HCC1937 = tested on: HCC1937
Outline: as §1

MDA-MB-231 = tested on: MDA-MB-231
Outline: as §1

MDA-MB-436 = tested on: MDA-MB-436
Outline: as §1

BT-549 = tested on: BT-549
Outline: as §1

MDA-MB-453 = tested on: MDA-MB-453
Outline: as §1

HDQ-P1 = tested on: HDQ-P1
Outline: as §1

HCC1143 = tested on: HCC1143
Outline: as §1

MCF-10A = tested on: MCF-10A
Outline: as §1

DU-4475 = tested on: DU-4475
Outline: as §1

CAL-51 = tested on: CAL-51
Outline: as §1

CAL-85-1 = tested on: CAL-85-1
Outline: as §1

CAL-120 = tested on: CAL-120
Outline: as §1

HCC1599 = tested on: HCC1599
Outline: as §1

BT-474 = tested on: BT-474
Outline: as §1

MDA-MB-468 = tested on: MDA-MB-468
Outline: as §1

Hs578T = tested on: Hs578T
Outline: as §1

MFM-223 = tested on: MFM-223
Outline: as §1

Structure (SMILES): CN(C)/N=N/c1[nH]cnc1C(N)=O [Dacarbazine] (1000 nM)
- normalised response (CAL-148): 101%
- normalised response (HCC1937): 116%
- normalised response (MDA-MB-231): 116%
- normalised response (MDA-MB-436): 77%
- normalised response (BT-549): 114%
- normalised response (MDA-MB-453): 103%
- normalised response (HDQ-P1): 88.7%
- normalised response (HCC1143): 86.7%
- normalised response (MCF-10A): 111%
- normalised response (DU-4475): 101%
- normalised response (CAL-51): 105%
- normalised response (CAL-85-1): 103%
- normalised response (CAL-120): 100%
- normalised response (HCC1599): 101%
- normalised response (BT-474): 102%

Structure (SMILES): N[C@@H](CSC(c1ccccc1)(c1ccccc1)c1ccccc1)C(=O)O [S-trityl-L-cysteine] (4000 nM)
- normalised response (CAL-148): 98.3%
- normalised response (HCC1937): 85.1%
- normalised response (MDA-MB-436): 105%
- normalised response (BT-549): 104%
- normalised response (MDA-MB-453): 101%
- normalised response (MDA-MB-468): 136%
- normalised response (HDQ-P1): 62.2%
- normalised response (HCC1143): 87%
- normalised response (MCF-10A): 116%
- normalised response (Hs578T): 106%
- normalised response (DU-4475): 101%
- normalised response (CAL-51): 105%
- normalised response (CAL-85-1): 100%
- normalised response (CAL-120): 97.9%
- normalised response (HCC1599): 95.5%
- normalised response (BT-474): 101%

Structure (SMILES): O=C1CCC(N2C(=O)c3ccccc3C2=O)C(=O)N1 (centres undefined) [Thalidomide] (10000 nM)
- normalised response (MFM-223): 101%
- normalised response (CAL-148): 60.5%
- normalised response (HCC1937): 97.8%
- normalised response (MDA-MB-231): 115%
- normalised response (BT-549): 99.3%
- normalised response (MDA-MB-453): 93.2%
- normalised response (MDA-MB-468): 186%
- normalised response (HCC1143): 105%
- normalised response (MCF-10A): 99%
- normalised response (Hs578T): 63.3%
- normalised response (DU-4475): 99.1%
- normalised response (CAL-51): 100%
- normalised response (CAL-85-1): 119%
- normalised response (CAL-120): 104%
- normalised response (HCC1599): 99.9%
- normalised response (BT-474): 103%

Structure (SMILES): CNCc1ccc(-c2[nH]c3cc(F)cc4c3c2CCNC4=O)cc1 [Rucaparib] (1000 nM)
- normalised response (MFM-223): 84.5%
- normalised response (CAL-148): 100%
- normalised response (HCC1937): 76%
- normalised response (MDA-MB-231): 100%
- normalised response (MDA-MB-436): 60.3%
- normalised response (BT-549): 115%
- normalised response (MDA-MB-453): 103%
- normalised response (HDQ-P1): 71.8%
- normalised response (HCC1143): 104%
- normalised response (MCF-10A): 84.3%
- normalised response (Hs578T): 110%
- normalised response (DU-4475): 95.3%
- normalised response (CAL-51): 93.3%
- normalised response (CAL-85-1): 71.2%
- normalised response (CAL-120): 97.2%
- normalised response (HCC1599): 96.6%
- normalised response (BT-474): 95.8%

Structure (SMILES): C=C(c1ccc(C(=O)O)cc1)c1cc2c(cc1C)C(C)(C)CCC2(C)C [Bexarotene] (10000 nM)
- normalised response (MFM-223): 74.1%
- normalised response (CAL-148): 97.9%
- normalised response (HCC1937): 105%
- normalised response (MDA-MB-231): 108%
- normalised response (MDA-MB-436): 78.6%
- normalised response (BT-549): 89.8%
- normalised response (MDA-MB-453): 98.4%
- normalised response (MDA-MB-468): 121%
- normalised response (HDQ-P1): 110%
- normalised response (HCC1143): 114%
- normalised response (MCF-10A): 93.8%
- normalised response (DU-4475): 101%
- normalised response (CAL-51): 96.8%
- normalised response (CAL-85-1): 79.7%
- normalised response (CAL-120): 100%
- normalised response (HCC1599): 108%
- normalised response (BT-474): 97.8%

Structure (SMILES): Cc1ccc(C(=O)Nc2ccc(CN3CCN(C)CC3)c(C(F)(F)F)c2)cc1C#Cc1cnc2cccnn12 [Ponatinib] (100 nM)
- normalised response (MFM-223): 98.7%
- normalised response (CAL-148): 104%
- normalised response (HCC1937): 92.2%
- normalised response (MDA-MB-231): 97.6%
- normalised response (MDA-MB-436): 102%
- normalised response (BT-549): 92%
- normalised response (MDA-MB-453): 105%
- normalised response (MDA-MB-468): 96.7%
- normalised response (HDQ-P1): 95.6%
- normalised response (HCC1143): 107%
- normalised response (MCF-10A): 72.1%
- normalised response (DU-4475): 99.3%
- normalised response (CAL-51): 99%
- normalised response (CAL-85-1): 105%
- normalised response (CAL-120): 99.1%
- normalised response (HCC1599): 97.4%
- normalised response (BT-474): 97.9%

Structure (SMILES): C=C(c1ccc(C(=O)O)cc1)c1cc2c(cc1C)C(C)(C)CCC2(C)C [Bexarotene] (1000 nM)
- normalised response (MFM-223): 103%
- normalised response (CAL-148): 75.7%
- normalised response (HCC1937): 94.8%
- normalised response (MDA-MB-231): 114%
- normalised response (MDA-MB-436): 98.4%
- normalised response (BT-549): 98.8%
- normalised response (MDA-MB-453): 84.4%
- normalised response (MDA-MB-468): 111%
- normalised response (HDQ-P1): 95.3%
- normalised response (HCC1143): 83.9%
- normalised response (MCF-10A): 85%
- normalised response (DU-4475): 99.3%
- normalised response (CAL-51): 110%
- normalised response (CAL-85-1): 95.7%
- normalised response (CAL-120): 99.6%
- normalised response (HCC1599): 107%
- normalised response (BT-474): 99.1%

Structure (SMILES): COc1cc2nccc(Oc3ccc(NC(=O)C4(C(=O)Nc5ccc(F)cc5)CC4)cc3)c2cc1OC [Cabozantinib] (1000 nM)
- normalised response (MFM-223): 93.8%
- normalised response (CAL-148): 96.9%
- normalised response (HCC1937): 102%
- normalised response (MDA-MB-231): 97.1%
- normalised response (MDA-MB-436): 87.1%
- normalised response (BT-549): 105%
- normalised response (MDA-MB-453): 101%
- normalised response (MDA-MB-468): 158%
- normalised response (HDQ-P1): 65.3%
- normalised response (HCC1143): 108%
- normalised response (Hs578T): 70.1%
- normalised response (DU-4475): 96.9%
- normalised response (CAL-51): 82.7%
- normalised response (CAL-85-1): 104%
- normalised response (CAL-120): 98.6%
- normalised response (HCC1599): 94.5%
- normalised response (BT-474): 98.4%

Structure (SMILES): CNCc1ccc(-c2[nH]c3cc(F)cc4c3c2CCNC4=O)cc1 [Rucaparib] (10000 nM)
- normalised response (MFM-223): 97.1%
- normalised response (CAL-148): 88.9%
- normalised response (HCC1937): 84.9%
- normalised response (MDA-MB-231): 98.5%
- normalised response (MDA-MB-436): 75.7%
- normalised response (BT-549): 112%
- normalised response (MDA-MB-453): 101%
- normalised response (MDA-MB-468): 160%
- normalised response (HDQ-P1): 105%
- normalised response (HCC1143): 74.6%
- normalised response (MCF-10A): 83.3%
- normalised response (DU-4475): 97.5%
- normalised response (CAL-51): 94.4%
- normalised response (CAL-85-1): 129%
- normalised response (CAL-120): 98.4%
- normalised response (HCC1599): 93.7%
- normalised response (BT-474): 96.9%

Structure (SMILES): C#Cc1cccc(Nc2ncnc3cc(OCCOC)c(OCCOC)cc23)c1 [Erlotinib] (1000 nM)
- normalised response (MFM-223): 86.7%
- normalised response (CAL-148): 69.6%
- normalised response (HCC1937): 121%
- normalised response (MDA-MB-231): 101%
- normalised response (MDA-MB-436): 101%
- normalised response (BT-549): 96.5%
- normalised response (MDA-MB-453): 108%
- normalised response (HDQ-P1): 100%
- normalised response (HCC1143): 112%
- normalised response (MCF-10A): 69.5%
- normalised response (Hs578T): 99.5%
- normalised response (DU-4475): 103%
- normalised response (CAL-51): 78.1%
- normalised response (CAL-85-1): 70.4%
- normalised response (CAL-120): 103%
- normalised response (HCC1599): 103%
- normalised response (BT-474): 98.3%

Structure (SMILES): N[C@@H](CSC(c1ccccc1)(c1ccccc1)c1ccccc1)C(=O)O [S-trityl-L-cysteine] (40000 nM)
- normalised response (MFM-223): 91%
- normalised response (CAL-148): 92.2%
- normalised response (MDA-MB-231): 122%
- normalised response (MDA-MB-436): 107%
- normalised response (BT-549): 121%
- normalised response (MDA-MB-453): 113%
- normalised response (MDA-MB-468): 124%
- normalised response (HDQ-P1): 115%
- normalised response (HCC1143): 132%
- normalised response (MCF-10A): 112%
- normalised response (Hs578T): 126%
- normalised response (DU-4475): 103%
- normalised response (CAL-51): 104%
- normalised response (CAL-85-1): 98.6%
- normalised response (CAL-120): 105%
- normalised response (HCC1599): 114%
- normalised response (BT-474): 103%

Structure (SMILES): COc1cc2nccc(Oc3ccc(NC(=O)C4(C(=O)Nc5ccc(F)cc5)CC4)cc3)c2cc1OC [Cabozantinib] (100 nM)
- normalised response (MFM-223): 96.3%
- normalised response (CAL-148): 102%
- normalised response (HCC1937): 120%
- normalised response (MDA-MB-231): 103%
- normalised response (BT-549): 101%
- normalised response (MDA-MB-453): 99.4%
- normalised response (MDA-MB-468): 136%
- normalised response (HDQ-P1): 91.5%
- normalised response (MCF-10A): 88.3%
- normalised response (Hs578T): 102%
- normalised response (DU-4475): 97.5%
- normalised response (CAL-51): 100%
- normalised response (CAL-85-1): 106%
- normalised response (CAL-120): 98.2%
- normalised response (HCC1599): 92.3%
- normalised response (BT-474): 100%
